The source made the active and inactive calls. The rule behind the calls is not given here.

Our source for the Activity, IC50 and viability values is ChEMBL document CHEMBL5131459, “Semisynthesis and neurotrophic activity studies of novel neomajucin/majucin derivatives as neurotrophin small molecule mimetics” (Bioorg Med Chem Lett, 2022).

The test system of the first series is PC-12. Kind of series: Neuroprotective activity in […] cells assessed as induction of NGF-mediated neurite outgrowth by measuring protrusion length extension at 10 uM by methylene blue staining based light microscopic analysis. The note with it: Rattus norvegicus. Type of series: functional, cell-based.
On to `C/C=C/C=C/C(=O)O[C@]12C(=O)OC[C@@]1(C)[C@@]1(O)CC[C@@H](C)[C@]13C[C@H]2OC(=O)[C@@H]3O`, for which the outcome was Active.

On to `C[C@@H]1C[C@@H](OC(=O)CCc2ccc(F)cc2)[C@@]2(O)[C@@]13C[C@@H](OC(=O)[C@@H]3O)[C@@]1(O)C(=O)OC[C@@]21C`, for which the result was Active.

Consider `C/C=C/C=C/C(=O)O[C@@H]1C[C@@H](C)[C@@]23C[C@@H](OC(=O)[C@@H]2O)[C@@]2(O)C(=O)OC[C@@]2(C)[C@@]13O`, for which the outcome was Active.

Tested on in the next series: not listed separately
The series can be described thus: Cytotoxicity against […] cells assessed as inhibition of cell growth by CCK-8 assay. Type of series: toxicity, cell-based. As to conditions: rat. On the technique in general: Formazan colour is commonly taken as a measure of viable cells.
As to `C/C=C/C=C/C(=O)O[C@]12C(=O)OC[C@@]1(C)[C@@]1(O)CC[C@@H](C)[C@]13C[C@H]2OC(=O)[C@@H]3O`, the IC50 (as a rule, the concentration that inhibits the measured activity by half) was greater than 512 µg/mL.

Consider `C/C=C/C=C/C(=O)O[C@@H]1C[C@@H](C)[C@@]23C[C@@H](OC(=O)[C@@H]2O)[C@@]2(O)C(=O)OC[C@@]2(C)[C@@]13O`, for which the IC50 was greater than 512 µg/mL.

The test system of a further series is PC-12. The series can be described thus: Neuroprotective activity against MPP+-induced cell injury in […] cells assessed as cell survival rate at 20 uM (reference value: 68.60 +/- 1.06 %). Type of series: functional. The note with it: Rattus norvegicus, read-out: Survival.
As to `C/C=C/C=C/C(=O)O[C@]12C(=O)OC[C@@]1(C)[C@@]1(O)CC[C@@H](C)[C@]13C[C@H]2OC(=O)[C@@H]3O`, the viability at 20 µM was 72.5%.

Take `C/C=C/C=C/C(=O)O[C@@H]1C[C@@H](C)[C@@]23C[C@@H](OC(=O)[C@@H]2O)[C@@]2(O)C(=O)OC[C@@]2(C)[C@@]13O`: the viability at 20 µM was found to be 68.5%.

In the next series the test system is PC-12. The series can be described thus: Neuroprotective activity in […] cells assessed as induction of NGF-mediated neurite outgrowth by measuring differentiation rate of neurite-beating cells at 10 uM incubated for 72 hrs (reference value: 4.27 +/- 0.04 %). Type of series: functional, Rattus norvegicus.
Details: not given
Regarding `C[C@@H]1CC[C@@]2(O)[C@@]13C[C@@H](OC(=O)[C@@H]3O)[C@@]1(OC(=O)CCc3cccc(Cl)c3)C(=O)OC[C@@]21C`, the Activity was 4.88%.

For the molecule `COc1cc(CC(=O)O[C@]23C(=O)OC[C@@]2(C)[C@@]2(O)CC[C@@H](C)[C@]24C[C@H]3OC(=O)[C@@H]4O)cc(OC)c1OC`, the Activity came out at 6.06%.

Consider `C[C@@H]1C[C@@H](OC(=O)CCC(=O)c2ccccc2)[C@@]2(O)[C@@]13C[C@@H](OC(=O)[C@@H]3O)[C@@]1(OC(=O)CCC(=O)c3ccccc3)C(=O)OC[C@@]21C`, for which the Activity came out at 5.25%.

For the molecule `C[C@@H]1C[C@@H](OC(=O)CCc2cccc(Cl)c2)[C@@]2(O)[C@@]13C[C@@H](OC(=O)[C@@H]3O)[C@@]1(OC(=O)CCc3cccc(Cl)c3)C(=O)OC[C@@]21C`, the Activity is recorded as 4.54%.

As to `C[C@@H]1C[C@@H](OC(=O)CCc2ccccc2)[C@@]2(O)[C@@]13C[C@@H](OC(=O)[C@@H]3O)[C@@]1(OC(=O)CCc3ccccc3)C(=O)OC[C@@]21C`, the Activity is 5.47%.

As to `C[C@@H]1C[C@@H](OC(=O)CCc2ccc(Br)cc2)[C@@]2(O)[C@@]13C[C@@H](OC(=O)[C@@H]3O)[C@@]1(OC(=O)CCc3ccc(Br)cc3)C(=O)OC[C@@]21C`, the Activity came to 8.73%.

Take `COc1ccc(CC(=O)O[C@]23C(=O)OC[C@@]2(C)[C@@]2(O)CC[C@@H](C)[C@]24C[C@H]3OC(=O)[C@@H]4O)cc1`: the Activity was 5.27%.

For `C/C=C/C=C/C(=O)O[C@]12C(=O)OC[C@@]1(C)[C@@]1(O)CC[C@@H](C)[C@]13C[C@H]2OC(=O)[C@@H]3O`, the Activity came to 11.02%.

As to `C[C@@H]1CC[C@@]2(O)[C@@]13C[C@@H](OC(=O)[C@@H]3O)[C@@]1(O)C(=O)OC[C@@]21C`, the Activity was 8.76%.

With `C[C@@H]1CC[C@@]2(O)[C@@]13C[C@@H](OC(=O)[C@@H]3O)[C@@]1(OC(=O)/C=C/c3ccccc3)C(=O)OC[C@@]21C`, the Activity was found to be 5.38%.

For `C[C@@H]1C[C@@H](OC(=O)CCc2ccc(F)cc2)[C@@]2(O)[C@@]13C[C@@H](OC(=O)[C@@H]3O)[C@@]1(O)C(=O)OC[C@@]21C`, the Activity stood at 10.96%.

`C[C@@H]1C[C@@H](OC(=O)CCc2ccc(Cl)cc2)[C@@]2(O)[C@@]13C[C@@H](OC(=O)[C@@H]3O)[C@@]1(OC(=O)CCc3ccc(Cl)cc3)C(=O)OC[C@@]21C`: the Activity amounted to 5.21%.

Consider `C[C@@H]1CC[C@@]2(O)[C@@]13C[C@@H](OC(=O)[C@@H]3O)[C@@]1(OC(=O)CCc3ccc(F)cc3)C(=O)OC[C@@]21C`, for which the Activity is reported as 8.99%.

As to `C/C=C/C=C/C(=O)O[C@@H]1C[C@@H](C)[C@@]23C[C@@H](OC(=O)[C@@H]2O)[C@@]2(O)C(=O)OC[C@@]2(C)[C@@]13O`, the Activity is recorded as 11.83%.

As to `C[C@@H]1CC[C@@]2(O)[C@@]13C[C@@H](OC(=O)[C@@H]3O)[C@@]1(OC(=O)CCC(=O)c3ccccc3)C(=O)OC[C@@]21C`, the Activity came out at 8.79%.

In the case of `C[C@@H]1CC[C@@]2(O)[C@@]13C[C@@H](OC(=O)[C@@H]3O)[C@@]1(OC(=O)CCCCBr)C(=O)OC[C@@]21C`, the Activity is 5.28%.

Consider `C[C@@H]1CC[C@@]2(O)[C@@]13C[C@@H](OC(=O)[C@@H]3O)[C@@]1(OC(=O)CCc3ccccc3)C(=O)OC[C@@]21C`, for which the Activity is 10.04%.

For the molecule `C[C@@H]1CC[C@@]2(O)[C@@]13C[C@@H](OC(=O)[C@@H]3O)[C@@]1(OC(=O)Cc3cccc(Br)c3)C(=O)OC[C@@]21C`, the Activity is given as 6.91%.

Regarding `C[C@@H]1CC[C@@]2(O)[C@@]13C[C@@H](OC(=O)[C@@H]3O)[C@@]1(OC(=O)Cc3ccc(Cl)cc3)C(=O)OC[C@@]21C`, the Activity is 5.52%.

Turning to `C[C@@H]1C[C@@H](OC(=O)CCc2cccc(Br)c2)[C@@]2(O)[C@@]13C[C@@H](OC(=O)[C@@H]3O)[C@@]1(O)C(=O)OC[C@@]21C`, the Activity is given as 5.56%.

As to `C[C@@H]1C[C@@H](OC(=O)CCc2cccc(Br)c2)[C@@]2(O)[C@@]13C[C@@H](OC(=O)[C@@H]3O)[C@@]1(OC(=O)CCc3cccc(Br)c3)C(=O)OC[C@@]21C`, the Activity was determined as 5.1%.

Turning to `C[C@@H]1C[C@@H](OC(=O)CCc2ccc(Cl)cc2)[C@@]2(O)[C@@]13C[C@@H](OC(=O)[C@@H]3O)[C@@]1(O)C(=O)OC[C@@]21C`, the Activity is reported as 5.03%.

Turning to `C[C@@H]1C[C@@H](OC(=O)CCc2cccc(F)c2)[C@@]2(O)[C@@]13C[C@@H](OC(=O)[C@@H]3O)[C@@]1(O)C(=O)OC[C@@]21C`, the Activity is 5.78%.

Take `C[C@@H]1CC[C@@]2(O)[C@@]13C[C@@H](OC(=O)[C@@H]3O)[C@@]1(OC(=O)Cc3cccc(Cl)c3)C(=O)OC[C@@]21C`: the Activity is given as 5.53%.

For `C[C@@H]1C[C@@H](OC(=O)CCc2ccccc2)[C@@]2(O)[C@@]13C[C@@H](OC(=O)[C@@H]3O)[C@@]1(O)C(=O)OC[C@@]21C`, the Activity is listed as 9.67%.

For `C[C@@H]1C[C@@H](OC(=O)CCc2ccc(Br)cc2)[C@@]2(O)[C@@]13C[C@@H](OC(=O)[C@@H]3O)[C@@]1(O)C(=O)OC[C@@]21C`, the Activity is reported as 10.02%.

Turning to `C[C@@H]1CC[C@@]2(O)[C@@]13C[C@@H](OC(=O)[C@@H]3O)[C@@]1(OC(=O)Cc3ccc4ccccc4c3)C(=O)OC[C@@]21C`, the Activity was 5.55%.

`C[C@@H]1CC[C@@]2(O)[C@@]13C[C@@H](OC(=O)[C@@H]3O)[C@@]1(OC(=O)Cc3cccc(F)c3)C(=O)OC[C@@]21C`: the Activity turned out to be 5.9%.

As for `C[C@@H]1CC[C@@]2(O)[C@@]13C[C@@H](OC(=O)[C@@H]3O)[C@@]1(OC(=O)CCCBr)C(=O)OC[C@@]21C`, the Activity is recorded as 6.04%.

For the molecule `C/C=C/C=C/C(=O)O[C@@H]1C[C@@H](C)[C@@]23C[C@@H](OC(=O)[C@@H]2O)[C@@]2(OC(=O)/C=C/C=C/C)C(=O)OC[C@@]2(C)[C@@]13O`, the Activity stood at 5.13%.

In the case of `C[C@@H]1CC[C@@]2(O)[C@@]13C[C@@H](OC(=O)[C@@H]3O)[C@@]1(OC(=O)Cc3ccc(Br)cc3)C(=O)OC[C@@]21C`, the Activity turned out to be 4.9%.

Regarding `C[C@@H]1C[C@@H](OC(=O)CCc2cccc(Cl)c2)[C@@]2(O)[C@@]13C[C@@H](OC(=O)[C@@H]3O)[C@@]1(O)C(=O)OC[C@@]21C`, the Activity came out at 4.69%.

In the case of `C[C@@H]1CC[C@@]2(O)[C@@]13C[C@@H](OC(=O)[C@@H]3O)[C@@]1(OC(=O)Cc3ccc(F)cc3)C(=O)OC[C@@]21C`, the Activity stood at 5.85%.

Consider `C[C@@H]1C[C@@H](OC(=O)CCC(=O)c2ccccc2)[C@@]2(O)[C@@]13C[C@@H](OC(=O)[C@@H]3O)[C@@]1(O)C(=O)OC[C@@]21C`, for which the Activity was 6.42%.

For `C[C@@H]1CC[C@@]2(O)[C@@]13C[C@@H](OC(=O)[C@@H]3O)[C@@]1(OC(=O)CCc3cccc(F)c3)C(=O)OC[C@@]21C`, the Activity amounted to 5.7%.

`C[C@@H]1CC[C@@]2(O)[C@@]13C[C@@H](OC(=O)[C@@H]3O)[C@@]1(OC(=O)CCc3ccc(Cl)cc3)C(=O)OC[C@@]21C`: the Activity came out at 6.05%.

For `C[C@@H]1C[C@@H](OC(=O)CCc2ccc(F)cc2)[C@@]2(O)[C@@]13C[C@@H](OC(=O)[C@@H]3O)[C@@]1(OC(=O)CCc3ccc(F)cc3)C(=O)OC[C@@]21C`, the Activity turned out to be 9.41%.

As for `C[C@@H]1C[C@@H](O)[C@@]2(O)[C@@]13C[C@@H](OC(=O)[C@@H]3O)[C@@]1(O)C(=O)OC[C@@]21C`, the Activity is 6.25%.

As for `C[C@@H]1CC[C@@]2(O)[C@@]13C[C@@H](OC(=O)[C@@H]3O)[C@@]1(OC(=O)CCc3cccc(Br)c3)C(=O)OC[C@@]21C`, the Activity amounted to 5.04%.

Regarding `C[C@@H]1CC[C@@]2(O)[C@@]13C[C@@H](OC(=O)[C@@H]3O)[C@@]1(OC(=O)CCc3ccc(Br)cc3)C(=O)OC[C@@]21C`, the Activity came to 6.85%.

As for `C[C@@H]1C[C@@H](OC(=O)CCc2cccc(F)c2)[C@@]2(O)[C@@]13C[C@@H](OC(=O)[C@@H]3O)[C@@]1(OC(=O)CCc3cccc(F)c3)C(=O)OC[C@@]21C`, the Activity came out at 4.93%.
